One may read the melting point as the temperature of the solid-liquid transition. Compound `CCCCCCCCCCCCCCCCc1nc(N(C)C)nc(OC)c1Br` registered a melting point of 66 to 67 °C.

With `CCNc1c(C(=O)O)ccc(Br)c1OCC`, the melting point was in the range of 129 to 139 °C.

On to `C=CCc1c(O)cccc1C1=NNC(=O)CC1`, for which the melting point lay within 197 to 200 °C.

The compound `NC(=O)c1cn(Cc2c(F)cccc2F)nn1` returned a melting point of 237 to 240 °C.

Regarding `COCCOc1cccc(-c2ccc(C3CCN(S(=O)(=O)C(C)(C)C(=O)NO)CC3)cc2C)n1`, the melting point was 134 to 138 °C.

In the case of `CSc1nccn1N=Cc1ccccc1`, the melting point was in the range of 95 to 97 °C.

Turning to `CC(O)=C(C#N)C(=O)Nc1ccc(C(C)(C)C)cc1`, the melting point lay within 134 to 135 °C.

The compound `CCCCn1c(-c2ccccc2)nc(Cl)c1CC(=O)O` gave a melting point of 189 to 190 °C.

Compound `CSCc1cnc2c([N+](=O)[O-])cccc2c1Cl` returned a melting point of 96 to 98 °C.

Take `O=C1Nc2cccnc2N(C(=O)NCCN2CCCCC2CCCCN2CCCCC2)c2ccccc21` (centres undefined): the melting point was in the range of 154 to 155 °C.

The compound `Cn1c(C(F)(F)F)cc(=O)n(-c2cc(OCCBr)c(Cl)cc2F)c1=O` showed a melting point of 125 to 127 °C.

On to `Cc1cc([N+](=O)[O-])ccc1N=C1SCC2(CCCC2)N1CC1CCCCC1`, for which the melting point was 85 to 87 °C.

Consider `CC1=NN=C(c2ccc([N+](=O)[O-])cc2)c2cc(Cl)ccc2C1`, for which the melting point was in the range of 199 to 203 °C.

`COc1cccc2c(Cc3nc(CCc4ccccc4)co3)coc12` had a melting point of 69 to 70 °C.

Compound `CC(C)c1c(S(=O)(=O)c2ccc(O)cc2)cnn1C` yielded a melting point of 209 to 210 °C.

Compound `CCOC(=O)CN(c1ccc(Cl)cc1)[C@H]1c2cc(C#N)ccc2OC(C)(C)[C@@H]1O` registered a melting point of 172 °C.

`COc1cc(C#N)ccc1C=NO` gave a melting point of 170 to 171 °C.

`CC(C)(C)C(=O)OCOC(=O)[C@H]1[C@@H]2CC[C@@](N)(C(=O)O)[C@@H]21` displayed a melting point of 205 to 206 °C.

Regarding `CC(C)(C#N)Cc1cccc(CC(C)(C)C#N)c1`, the melting point fell in the range of 58 to 63 °C.

Turning to `N#Cc1ccc(OCc2ccc3c(c2)OCO3)cc1OC(C(=O)O)c1ccccc1` (racemic), the melting point is 68 to 70 °C.

In turn, `CCOP(=O)(/C=C/c1cn(-c2ccccc2)nc1OCc1ccc(OCc2nc(-c3ccco3)oc2C)c(OC)c1)OCC` registered a melting point of 60 to 63 °C.

For the compound `O=C(Nc1sc2c(c1S(=O)(=O)O)CCCC2)C1CC1`, the melting point was in the range of 225 to 230 °C.

`CCOc1cc(-c2ccc3c(c2)C=C(C(=O)Nc2ccc(CN(C)C4CCOCC4)cc2)CCS3(=O)=O)ccc1C#N`: the melting point fell in the range of 244 to 247 °C.

For the compound `CCCCOC(=O)c1ccc(Cl)nn1`, the melting point was in the range of 110 to 111 °C.

As for `Cn1c(=O)[nH]c2cc(CN3CCN(C(c4ccccc4)c4ccccc4)CC3)ccc21`, the melting point was 246 °C.

Consider `CC1COc2c(Br)c(F)cc3c(=O)c(C(=O)O)cn1c23` (centres undefined), for which the melting point is over 250 °C.

In turn, `NCCSc1ncccc1C(O)c1ccccc1` (centres undefined) gave a melting point of 118 to 120 °C.

`CCCCOc1c(CNC(=O)OC(C)(C)C)n(CC2CC2)c(=O)c2ccc(O)cc12` came in with a melting point of 164 to 166 °C.

Compound `CON(c1ccc([N+](=O)[O-])cc1Cl)S(=O)(=O)c1cccc(C(F)(F)F)c1` gave a melting point of 95.5 to 96.5 °C.

On to `CCOC(=O)N[C@@H]1CCc2c(ccc(OCc3ccccc3)c2C(=O)OC)[C@H]1O` (relative stereo), for which the melting point was 147 to 148 °C.

For `CCn1ncc2c1ncc1c(SC)nc3cc(C)nn3c12`, the melting point is 168 to 169 °C.

Turning to `COc1ccc(-c2cc(COS(C)(=O)=O)c(=O)n(CCCc3ccc(F)cc3)n2)cc1F`, the melting point was in the range of 112 to 116 °C.

For `COc1ccc(C(C#Cc2cnc(N)nc2)Cc2nc(C)co2)cc1OC1CCCC1` (racemic), the melting point fell in the range of 103 to 105 °C.

`COc1cc(OC)c(/C=C/S(=O)(=O)Nc2ccc(OC)c(NC(C)=O)c2)c(OC)c1` returned a melting point of 296 to 298 °C.

As for `COc1ccc(Cl)cc1C(=O)NCCc1ccc(Br)c(S(N)(=O)=O)c1`, the melting point is 190 °C.

In the case of `CC(C)C[C@H](NC(=O)OCc1ccccc1)C(=O)N[C@@H](Cc1ccccc1)C(=O)CN(C)C`, the melting point was 81 to 82 °C.

The compound `O=C1c2ccccc2C(=O)N1CCc1ccc(C(F)(F)F)cc1` gave a melting point of 134 to 135 °C.

`CSc1ccc(-c2nc(SC)c(C#N)c(=O)n2-c2ccc(C)cc2)cc1` yielded a melting point of 196 to 198 °C.

As for `COc1c(C(=O)Nc2ccc(OCC(C)(C)C)c(C#N)c2)cnn1-c1ccc(F)cc1`, the melting point lay in the range of 120 to 123 °C.

For the compound `CC1NC(=O)NN=C1c1ccc(O)cc1` (centres undefined), the melting point was in the range of 256 to 259 °C.

Turning to `O=C(Nc1ccccc1)N1CC2(CN1)CNN(C(=O)Nc1ccccc1)C2`, the melting point amounted to 227 °C.

`CC(=O)NC(CCCCCCCCC(NC(C)=O)C1CCCCCCC1)C1CCCCCCC1` (centres undefined): the melting point was in the range of 144 to 149 °C.

With `Cc1ccc2oc(=O)n(-c3ccnc(N)c3)c2c1`, the melting point fell in the range of 173 to 174 °C.

On to `CCOC(=O)C(=O)Nc1ccc(NS(C)(=O)=O)cc1`, for which the melting point lay within 136 to 139 °C.

On to `COc1ccccc1NC(=O)Nc1nc(Nc2ccccc2-c2ccccc2)nc(N(CC(=O)O)Cc2ccc(OC)c(OC)c2)n1`, for which the melting point lay in the range of 115 to 120 °C.

Compound `Cc1c(=O)[nH]c(=O)n2ccsc12` returned a melting point of over 230 °C.

In the case of `COc1cc(C)c(C(=O)c2c(Cl)cccc2Cl)c(OC)c1OC`, the melting point turned out to be 92 °C.

In the case of `OCCCc1oc(-n2cncn2)nc1-c1ccc(Cl)cc1`, the melting point is 139 to 140 °C.

`CCCCCCCCOC(=O)Oc1ccc(C(=O)O)cc1` displayed a melting point of 126 °C.

With `O=c1oc(-c2ccccc2)cc(O)c1Sc1ccccc1Cl`, the melting point lay within 275 to 280 °C.

On to `COC(=O)C(Cc1c[nH]c2ccccc12)NC1CCC(c2ccccc2)(N(C)C)CC1` (centres undefined), for which the melting point is 60 to 65 °C.

`Cc1ccc(N)c(OCCOc2cc(C(=O)OC(C)(C)C)ccc2N)c1`: the melting point is 154 to 156 °C.

`COC(=O)N(CO)c1ccc(OCc2nc3ccccc3s2)cc1C` came in with a melting point of 121 to 123 °C.

For the compound `CCOC(=O)C1=C(C)NC(C)=C(C(=O)OCC)C1c1ccccc1Br`, the melting point was 144 to 145 °C.

Turning to `CNc1nc(C)c(-c2cccnc2)s1`, the melting point is 152 to 153 °C.

Take `COc1ccc(N(CCCC(=O)O)C(=O)c2ccc(Cl)cc2)cc1-c1ccccc1`: the melting point was 114 to 116 °C.

As to `Cc1c(SCCCN2CCN(Cc3ccncc3)CC2)ccnc1CNc1cnc2ccccc2c1`, the melting point lay in the range of 145 to 150 °C.

Turning to `COC(=O)Cc1cc(Br)c(S)c(Br)c1`, the melting point lay within 63.5 to 65 °C.

The compound `O=C(O)c1ccc(C(=O)Nc2cccc([N+](=O)[O-])c2)cc1` gave a melting point of 319 °C.

Consider `C=CCn1cccc1C(N)=S`, for which the melting point was in the range of 80.5 to 83 °C.

As to `OCc1ccc(OCc2csc(-c3ccccc3)n2)nc1`, the melting point lay in the range of 134 to 135 °C.

Compound `C=CCc1cc(C(C)=O)c(O)cc1OCCCCCCCC#N` returned a melting point of 46 to 48 °C.

As for `Cc1nc(-c2ccc(C(=O)N3Cc4cccnc4Nc4ccccc43)c(Cl)c2)n[nH]1`, the melting point lay in the range of 196 to 198 °C.

As to `COc1cc(OC)n2nc(S(=O)(=O)Nc3c(Cl)cccc3Cl)nc2c1`, the melting point lay in the range of 252 to 253 °C.

The values are drawn from a melting point compilation (Tetko et al.; mined from patent text by program, amines drawn as free bases though some values may be those of a salt).
